Patent US20150322001A1, “OMEGA-3 ANALOGUES” (The University of Sydney, priority 2012, published 2015)

System: MDA-MB-231 cells
Test: MTT assay, inhibition of proliferation of MDA-MB-231 cells
Type: cell-based, human
Conditions: MTT reduction, 24 h
Protocol: The synthesized compounds given in Table 1 were tested for their activity in inhibiting the proliferation of MDA-MB-231 cells.
• 1. Cell culture and cell treatment: Breast cancer MDA-MB-231 cells were maintained in monolayers at 37° C. in DMEM containing penicillin and streptomycin, L-glutamine and 10% fetal bovine serum in an atmosphere of 95% air and 5% CO2. Cells were seeded into multi-well plates at 5×10^4 cells/mL; media was replaced 24 h later with fresh serum-free DMEM containing one of the test compounds in DMSO. DMSO was added to control cells at a final concentration of 0.1%. • 2. MTT assay: MDA-MB-231 cells were seeded in 96 well plates (0.2 mL/well), treated with compounds at 0.01, 0.1, 0.5, 1, 5 and 10 μM for 24 h. MTT (25 μL of 2.5 mg/mL solution) was added to each well for 2 h, after which MTT and media were removed. The blue formazan product formed from MTT by live cells was dissolved in DMSO (100 μL/well) and quantified spectrophotometrically at 540 nm in a multilabel counter. IC50s were calculated using GraphPad Prism (Prism 5.01). • 3. Caspase 3 activity: MDA-MB-231 cells were seeded in 96 well plates (0.2 mL/well), and were treated with compounds at 0.1, 0.5 and 1 μM for 24 h. Caspase 3 activity was quantified using the Caspase-Glo 3/7 assay kit according to manufacturer's protocol (Promega). Briefly, after 24 h treatment, fresh serum-free media was added to wells. Cells were equilibrated at room temperature for 30 min, caspase 3/7 substrate in lysis buffer was added and the luminescence was measured. Relative caspase 3/7 activity was calculated as [(luminescence in treatment−luminescence in control)/luminescence in control×100%]. • 4. Annexin V assay: MDA-MB-231 cells were seeded in 6 well plates (3 mL/well), and were treated with compounds at 0.1, 0.5 and 1 μM for 24 h. The apoptotic cells were quantified by Annexin V staining according to the manufacture's protocol (BD Biosciences). Briefly, after 24 h treatment, the media and harvested cells were collected, followed by PBS washes. Cells were stained with Annexin V and PI in binding buffer for 15 min at room temperature and quantified by flow cytometry (BD Biosciences). The apoptotic cells (%) were calculated as [(Annexin V positive cells in treatment−Annexin V positive cells in control)/Annexin V positive cells in control×100%]. • 5. Matrigel assay: MDA-MB-231 cells were trypsinized and resuspended in serum-free DMEM media (3.5×10^6 cells/mL). The cell suspension was mixed 1:1 with Matrigel solution (Bio Scientific). Aliquots (20 μL containing 3.5×10^4 cells) were placed into 6-well tissue-culture dishes to form well-defined droplets and incubated at 37° C. for 5 min to enable semi-solidification. Migration media was freshly made as DMEM containing 20% fetal bovine serum, epidermal growth factor 10 pg/mL, hydrocortisone 0.4 ng/mL, vascular endothelial growth factor (VEGF, 1 pg/mL), basic fibroblast growth factor (bFGF, 20 pg/mL), insulin-like growth factor-1 (40 pg/mL), ascorbic acid (2 ng/mL) and heparin (45 ng/mL). Compounds were added in migration media (3 mL/well) and plates were then incubated for 24 h. Cells that migrated out of droplets were scored using phase-contrast microscopy and digital image analysis (Olympus). • 6. Real-time RT PCR: Cell droplets from migration assays were collected, and total RNA was extracted using Tri Reagent (Astral Scientific) according to the manufacturer's protocol. RNA samples were treated with DNase (Promega) and gene expression was quantified using an Express Onestep Superscript qRT-PCT kit (Invitrogen) and gene-specific primers: heparanase (forward) […] and (reverse) GCAGCAACTTTGGCATTTC, integrin-α3 (forward) […] and (reverse) […], actin (forward) […] and (reverse) […]. The cycling conditions (Roto-Gene™ 6000; Corbett Research) were as follows: 95° C. (15 min); 40 cycles of denaturation (95° C., 30 s); annealing (60° C., 1 min); elongation (72° C., 1 min). […]

Compound	IC50 (Homo sapiens) [µM]	IC50 [µM]
O=C(O)CCCCCCCCCCCCCCCNC(=O)Nc1ccccc1 [Compound 6, 16-[(phenylcarbamoyl)amino]hexadecanoic acid]	1.2	
16-{[(4-methoxyphenyl)carbamoyl]amino}hexadecanoic acid [Compound 24]		1.3
O=C(O)CCCCCCCCCCCCCCCNC(=O)Nc1ccc(Cl)cc1 [Compound 14, 16-{[(4-chlorophenyl)carbamoyl]amino}hexadecanoic acid]	0.81	
CCOC(=O)CCCCCCCCCCCCCCCNC(=O)Nc1ccccc1 [Compound 9, Ethyl 16-[(phenylcarbamoyl)amino]hexadecanoate]	1.59 ± 0.28	
CCOC(=O)CCCCCCCCCCCCCCCNC(=O)NC12CC3CC(CC(C3)C1)C2 [Compound 17, Ethyl 16-[(tricyclo[3.3.1.1^3,7]dec-1-ylcarbamoyl)amino]hexadecanoate]	2.75 ± 0.27	
O=C(O)CCCCCCCCCCCCCCCNC(=O)Nc1ccc(I)cc1 [Compound 26, 16-{[(4-iodophenyl)carbamoyl]amino}hexadecanoic acid]	1	
CCOC(=O)CCCCCCCCCCCCCCCNC(=O)NCCc1ccccc1 [Compound 2, Ethyl 16-{[(2-phenylethyl)carbamoyl]amino}hexadecanoate]	1.11 ± 0.26	
CCOC(=O)CCCCCCCCCCCCCCCNC(=O)NC1CCCCC1 [Compound 1]	0.85 ± 0.02	
O=C(O)CCCCCCCCCCCCCCCNC(=O)NC1CCCCC1 [Compound 5, 16-[(cyclohexylcarbamoyl)amino]hexadecanoic acid]	2.78 ± 0.19	
CCOC(=O)CCCCCCCCCCCCCCCNC(=O)NC(C)(C)C [Compound 4, Ethyl 16-[(tert-butylcarbamoyl)amino]hexadecanoate]	6.92 ± 0.31	
CCOC(=O)CCCCCCCCCCCCCCCNC(=O)Nc1ccc(Cl)cc1 [Compound 13, Ethyl 16-{[(4-chlorophenyl)carbamoyl]amino}hexadecanoate]	0.08 ± 0.01	
O=C(O)CCCCCCCCCCCCCCCNC(=O)NCCc1ccccc1 [Compound 3, 16-{[(2-phenylethyl)carbamoyl]amino}hexadecanoic acid]	1.5 ± 0.08	
CCNC(=O)NCCCCCCCCCCCCCCCC(=O)OCC [Compound 20, Ethyl 16-[(ethylcarbamoyl)amino]hexadecanoate]	0.66 ± 0.03	
O=C(O)CCCCCCCCCCCCCCCNC(=O)Nc1ccc(F)cc1 [Compound 12, 16-{[(4-fluorophenyl)carbamoyl]amino}hexadecanoic acid]	1	
CCOC(=O)CCCCCCCCCCCCCCCNC(=O)NCc1ccccc1 [Compound 10, Ethyl 16[(benzylcarbamoyl)amino]hexadecanoate]	0.87 ± 0.08	
O=C(O)CCCCCCCCCCCCCCCNC(=O)NCc1ccccc1 [Compound 8, 16-[(benzylcarbamoyl)amino]hexadecanoic acid]	0.72 ± 0.01	
O=C(O)CCCCCCCCCCCCCCCNC(=O)Nc1ccc(Cl)c(Cl)c1 [Compound 28, 16-{[(3,4-dichlorophenyl)carbamoyl]amino}hexadecanoic acid]	1.2	
CC(C)(C)NC(=O)NCCCCCCCCCCCCCCCC(=O)O [Compound 7, 16-[(tert-butylcarbamoyl)amino]hexadecanoic acid]	1.22 ± 0.08	
CCOC(=O)CCCCCCCCCCCCCCCNC(=O)Nc1ccc(F)cc1 [Compound 11, Ethyl 16-{[(4-fluorophenyl)carbamoyl]amino}hexadecanoate]	0.76 ± 0.07	
